Results published in US10683267B1, “Antidiabetic compounds” (King Abdulaziz University, priority 2019, dated 2020).
“Also recorded” adds a separate entry of the source. Where two headings read alike, the source gives them in different places. Marks after values point to notes of the source that are not given here.

Legend:
DPP-IV enzyme = target: T1, DPP-IV enzyme (Homo sapiens, UniProt P27487); experiment: In vitro DPP-IV inhibition assay (Biovision kit, fluorescence); type: biochemical; conditions: for DPP-4 enzyme inhibition activity, in words: SAR discussion; for % Inhibition (values marked *: inhibition at 1000 nM): compound at 1000 nM; for % Inhibition @ 100 nM / inhibition at 0.1 µM: compound at 100 nM
T1 construct: purchased Biovision (Milpitas, Calif., USA)
Procedure: DPP-IV inhibition assay was conducted using a kit purchased from Biovision (Milpitas, Calif., USA). Briefly, DPP-IV enzyme was diluted with Tris buffer and pipetted 50 μl into glass mini-cells. […] Finally a volume of 25 μl of DPP-IV substrate was added into each tube. The fluorescence generated from hydrolysis of the substrate was read at Ex/Em=360/460 nm using Modulus® single tube multimode reader (Promega, USA). Baseline fluorescence was recorded before incubation (R1) and 20 min after incubation (R2).
The standard DPP-IV inhibitor drug sitagliptin employed as positive control. […] Sigmoidal concentration-response curves for DPP-IV % inhibition versus log concentration were plotted using Graphpad prism software, version 5.00 (GraphPad Software, Inc. La Jolla, Calif., USA).

diabetic mice [1] = experiment: Oral glucose tolerance test (OGTT) after single dose in diabetic mice; type: in vivo; conditions: for R.P. to Vildagliptin (Single Dose): Table 6, relative potency, B.G. = blood glucose; for AUC % change from diabetic control / AUC Δ from diabetic control / AUC of blood glucose in OGTT (X, mean): single oral dose 50 mg/kg; for AUC of blood glucose in OGTT (X, mean): glucose load 2 g/kg 2 h later, AUC 0-120 min
Procedure: (§1) The Biochemical and Research Ethical Committee of King Abulaziz University (Jeddah, Saudi Arabia), in accordance with the NIH guidelines, approved all procedures, and the animals received human care during the experimental period. Experiments were carried out using adult male Swiss albino mice (SWR), of 8-9 weeks age and 30-35 g weight. Animals were purchased from the animal house of the King Fahed Medical Research center (KFMRC), Jeddah, Saudi Arabia. Mice were kept at a constant temperature of 24-25° C. and were subjected to a controlled 12 h light-dark cycle; they had free access to water and pelleted diet ad libitum.
(§2) Nicotinamide (210 mg/kg b.w.), dissolved in saline, was injected intraperitoneally 15 min before the intraperitoneal injection of Streptozotocin (STZ) (Sigma, 180 mg/kg b.w.), which was freshly prepared in citrate buffer (pH 4.5). Control animals received both vehicles. During the experimental period, animals' food intake and body weight gain were monitored once a week.
Oral glucose tolerance tests were performed in 14 h overnight fasted diabetic mice that were pretreated with a single oral dose of the tested compounds. […] The drugs were suspended in carboxymethyl cellulose (CMC)-Na (1% in distilled water) and the dosing volume was adjusted at 10 mL/kg body weight of the mouse. Then an oral glucose load was administered (2 g/kg) 2 h after drug treatment. Blood glucose levels were determined using the Accu-check Go® (Roche Diagnostics, Michigan, USA). Samples were collected just before drug administration (fasting blood glucose), then at 2 h after drug treatment (immediately before glucose loading). Then blood sample collection was continued at 20, 40, 60 and 120 min intervals after glucose loading.
Animals were distributed between three categories of groups. Each group is composed of six animals (n=6) […] as follows:
Category 1: One group of animals were 14 h overnight-fasted normoglycemic mice and vehicle-treated (1% CMC-Na) at a dose of 10 ml/kg.
Category 2: Another group of animals was overnight fasted diabetic mice received the vehicle (1% CMC-Na) at a dosing volume of 10 ml/kg and served as a negative control.
Category 4: Animals of these groups were overnight fasted diabetic mice received the tested compounds at a dose of 50 mg/kg in 1% CMC (volume of 10 ml/kg).

diabetic mice [2] = experiment: Oral glucose tolerance test (OGTT) after multiple doses (6 days) in diabetic mice; type: in vivo; conditions: for R.P. to Vildagliptin (6 Days): Table 6, relative potency, B.G. = blood glucose; for AUC % change from diabetic control / AUC Δ from diabetic control / Relative potency to vildagliptin / AUC of blood glucose in OGTT (X, mean): 50 mg/kg oral for 6 days; for Relative potency to vildagliptin: OGTT AUC; for AUC of blood glucose in OGTT (X, mean): glucose load 2 g/kg 2 h after 6th dose, AUC 0-120 min
Procedure: as §1, §2
(§3) On the same groups that received the single dose treatment, the tested compounds were given daily by oral gavage for six consecutive days. On day 6, the overnight fasted diabetic mice were pretreated with the 6th oral dose of the tested compounds. Two hours later, an oral glucose was loaded (2 g/kg/10 ml b.w.). Blood glucose levels were determined using the Accu-check Go®. Samples were collected just before drug administration (Fasting Blood glucose), then 2 h after drug treatment and before glucose administration. Samples collection was continued at 20, 40, 60 and 120 min intervals after glucose loading.

diabetic mice [3] = experiment: Fasting blood glucose of diabetic mice treated daily for 6 consecutive days; type: in vivo; conditions: 50 mg/kg oral daily
Procedure: as §1, §2, §3
The oral glucose tolerance test (OGTT) was performed over six days on diabetic mice. The glucose level was monitored daily (Table 3). The results were analyzed for activities after a single dose (Table 4) and after the 6th dose of the drug (Table 5).

[4] = Table 2, head prints no unit, nM per Table 6, read-out: IC50
[5] = read-out: enzymatic inhibition value / inhibitory activity (IC50)

T1 sequence (P27487 whole entry, species assumed): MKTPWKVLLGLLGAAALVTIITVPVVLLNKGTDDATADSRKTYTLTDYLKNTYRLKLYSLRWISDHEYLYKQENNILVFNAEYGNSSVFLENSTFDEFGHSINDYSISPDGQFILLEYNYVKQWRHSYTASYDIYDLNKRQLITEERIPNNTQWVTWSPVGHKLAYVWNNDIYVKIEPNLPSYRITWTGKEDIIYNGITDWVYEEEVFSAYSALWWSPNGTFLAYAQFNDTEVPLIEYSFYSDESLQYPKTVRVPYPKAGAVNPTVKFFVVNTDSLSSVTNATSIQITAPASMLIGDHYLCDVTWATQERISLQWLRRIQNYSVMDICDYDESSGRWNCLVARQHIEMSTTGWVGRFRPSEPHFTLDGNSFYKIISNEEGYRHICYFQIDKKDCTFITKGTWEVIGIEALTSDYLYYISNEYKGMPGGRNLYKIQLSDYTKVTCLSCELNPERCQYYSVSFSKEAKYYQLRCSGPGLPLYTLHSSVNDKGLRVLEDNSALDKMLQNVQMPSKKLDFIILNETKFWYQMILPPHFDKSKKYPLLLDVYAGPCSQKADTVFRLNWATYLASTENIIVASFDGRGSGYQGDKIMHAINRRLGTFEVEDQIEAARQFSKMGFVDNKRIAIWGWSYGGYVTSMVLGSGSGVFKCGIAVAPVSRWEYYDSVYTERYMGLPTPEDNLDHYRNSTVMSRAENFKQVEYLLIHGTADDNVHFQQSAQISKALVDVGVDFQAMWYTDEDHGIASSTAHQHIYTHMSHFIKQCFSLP

| Structure (SMILES) | DPP-4 enzyme inhibition activity, in words (DPP-IV enzyme) | IC50 (DPP-IV enzyme; [4]) [nM] | IC50 (DPP-IV enzyme; Table 6, read-out: IC50) [nM] | % Inhibition (values marked *: inhibition at 1000 nM) (DPP-IV enzyme) | % Inhibition @ 100 nM (DPP-IV enzyme) [%] | R.P. to Vildagliptin (Single Dose) (diabetic mice [1]) | R.P. to Vildagliptin (6 Days) (diabetic mice [2]) | further results |
| --- | --- | --- | --- | --- | --- | --- | --- | --- |
| N#Cc1ccc(NC(=O)CNC23CC4CC(CC(C4)C2)C3)cc1 [Compound 118] | high affinity towards the enzyme; also recorded: high DPP-4 inhibition | 6.25 | 6.25 | – | 81.14 | 1.33 | 0.64 | Fasting blood glucose level, Day 1 (diabetic mice [3]): 151.00 ± mg/dL; Fasting blood glucose level, Day 2 (diabetic mice [3]): 124.00 ± mg/dL; Fasting blood glucose level, Day 3 (diabetic mice [3]): 117.80 ± mg/dL; Fasting blood glucose level, Day 4 (diabetic mice [3]): 141.00 ± mg/dL; Fasting blood glucose level, Day 5 (diabetic mice [3]): 140.50 ± mg/dL; Fasting blood glucose level, Day 6 (diabetic mice [3]): 151.30 ± mg/dL; AUC % change from diabetic control (diabetic mice [1]): −44.22%; AUC Δ from diabetic control (diabetic mice [1]): 22581 mg·min/dL; AUC of blood glucose in OGTT (X, mean) (diabetic mice [1]): 28484* mg · dL^−1 · min; AUC % change from diabetic control (diabetic mice [2]): −54.25%; AUC Δ from diabetic control (diabetic mice [2]): 28569 mg·min/dL; Relative potency to vildagliptin (diabetic mice [2]): 1.50; AUC of blood glucose in OGTT (X, mean) (diabetic mice [2]): 24086* mg · dL^−1 · min |
| Cc1cccc(NC(=O)CNC23CC4CC(CC(O)(C4)C2)C3)c1 [Compound 30] | much weaker enzyme inhibition activities | – | – | 70.92* % | – | – | – | – |
| O=C(CNC12CC3CC(CC(O)(C3)C1)C2)Nc1cccc(C(F)(F)F)c1 [Compound 15] | did not show good activity; also recorded: generally weak | 116 | > 100 | 97.81* % | – | 1.18 | 0.72 | Fasting blood glucose level, Day 1 (diabetic mice [3]): 167.20 ± mg/dL; Fasting blood glucose level, Day 2 (diabetic mice [3]): 87.80 ± mg/dL; Fasting blood glucose level, Day 3 (diabetic mice [3]): 177.60 ± mg/dL; Fasting blood glucose level, Day 4 (diabetic mice [3]): 166.80 ± mg/dL; Fasting blood glucose level, Day 5 (diabetic mice [3]): 175.80 ± mg/dL; Fasting blood glucose level, Day 6 (diabetic mice [3]): 161.80 mg/dL; AUC % change from diabetic control (diabetic mice [1]): −39.13%; AUC Δ from diabetic control (diabetic mice [1]): 19985 mg·min/dL; AUC of blood glucose in OGTT (X, mean) (diabetic mice [1]): 31080* mg · dL^−1 · min; AUC % change from diabetic control (diabetic mice [2]): −26.07%; AUC Δ from diabetic control (diabetic mice [2]): 13729 mg·min/dL; Relative potency to vildagliptin (diabetic mice [2]): 0.72; AUC of blood glucose in OGTT (X, mean) (diabetic mice [2]): 38926* mg · dL^−1 · min |
| O=C(CNC12CC3CC(CC(O)(C3)C1)C2)Nc1ccccc1C(F)(F)F [Compound 14] | generally weak | 41.3 | 41.3 | – | 84.81 | 0.12 | Increased B.G. | – |
| Cc1ccc(NC(=O)CNC23CC4CC(CC(O)(C4)C2)C3)cc1 [Compound 3] | much weaker enzyme inhibition activities | – | – | – | 28.38 | – | – | – |
| O=C(CNC12CC3CC(CC(O)(C3)C1)C2)Nc1ccc(Cl)cc1 [Compound 43] | weak inhibitors at high concentration | 102 | > 100 | – | 51.64 | 0.26 | 1.39 | – |
| O=C(CNC12CC3CC(CC(O)(C3)C1)C2)Nc1cccc(O)c1 [Compound 17] | very weak activity | 212 | > 100 | – | 44.44 | 0.26 | 1.42 | – |
| O=C(CNC12CC3CC(CC(C3)C1)C2)Nc1cc(Cl)ccn1 [Compound 117] | high DPP-4 inhibition; also recorded: best functionality in enzyme inhibition activity | 5.42 | – | – | 83.14 | – | – | – |
| COc1ccccc1NC(=O)CNC12CC3CC(CC(O)(C3)C1)C2 [Compound 5] | weakened the enzyme inhibition activities | 94.1 | 94.1 | 93.48* % | – | 0.66 | 0.26 | – |
| O=C(CNC12CC3CC(CC(O)(C3)C1)C2)NCc1ccc(F)cc1 [Compound 54] | – | 87.1 | 87.1 | – | 57.12 | Increased B.G. | Increased B.G. | – |
| O=C(CNC12CC3CC(CC(O)(C3)C1)C2)NCCc1ccccc1 [Compound 59] | – | – | – | 67.04* % | – | 0.52 | 0.83 | – |
| O=C(CNC12CC3CC(CC(O)(C3)C1)C2)Nc1ccc(O)cc1 [Compound 60] | very weak activity | – | – | 20.11* % | – | 0.67 | 0.67 | – |
| N#C[C@@H]1CCCN1C(=O)CNC12CC3CC(CC(O)(C3)C1)C2 [Vildagliptin, reference compound] | – | – | – | – | – | – | 1 | Fasting blood glucose level, Day 1 (diabetic mice [3]): 205.20 ± mg/dL; Fasting blood glucose level, Day 2 (diabetic mice [3]): 119.40 ± mg/dL; Fasting blood glucose level, Day 3 (diabetic mice [3]): 169.20 ± mg/dL; Fasting blood glucose level, Day 4 (diabetic mice [3]): 197.80 mg/dL; Fasting blood glucose level, Day 5 (diabetic mice [3]): 244.60 mg/dL; Fasting blood glucose level, Day 6 (diabetic mice [3]): 165.00 mg/dL |

The next lines start with results.

| DPP-4 enzyme inhibition activity, in words (DPP-IV enzyme) | IC50 (DPP-IV enzyme; [4]) [nM] | IC50 (DPP-IV enzyme; Table 6, read-out: IC50) [nM] | % Inhibition (values marked *: inhibition at 1000 nM) (DPP-IV enzyme) | % Inhibition @ 100 nM (DPP-IV enzyme) [%] | Structure (SMILES) | R.P. to Vildagliptin (Single Dose) (diabetic mice [1]) | R.P. to Vildagliptin (6 Days) (diabetic mice [2]) | further results |
| --- | --- | --- | --- | --- | --- | --- | --- | --- |
| exception to nitrile performance | 267 | > 100 | 99.06* % | – | N#Cc1ccccc1NC(=O)CNC12CC3CC(CC(O)(C3)C1)C2 [Compound 19] | 0.23 | 0.87 | – |
| much weaker enzyme inhibition activities | – | – | 62.84* % | – | Cc1cccc(C)c1NC(=O)CNC12CC3CC(CC(C3)C1)C2 [Compound 120] | – | – | – |
| high affinity towards the enzyme | 0.58 | 0.58 | – | – | N#Cc1cccc(NC(=O)CNC23CC4CC(CC(O)(C4)C2)C3)c1 [Compound 26, N-(3-cyanophenyl)-2-[(3-hydroxyadamantan-1-yl)amino]acetamide] | 0.32 | 1.3 | DPP-4 enzyme inhibition activity, in words (DPP-IV enzyme; listed as GLP-26): high level of potency both in vitro and in vivo; inhibition at 0.1 µM (DPP-IV enzyme): 83.1%; IC50 (DPP-IV enzyme; [5]): < 1 nM |
| – | 7.41 | – | – | – | O=C(CNC12CC3CC(CC(O)(C3)C1)C2)NCc1ccccc1 [Compound 53] | – | – | inhibition at 0.1 µM (DPP-IV enzyme): 86.8% |
| – | 10.1 | 10.1 | – | 86.82 | Cc1ccccc1NC(=O)CNC12CC3CC(CC(O)(C3)C1)C2 [Compound 2] | 0.42 | 1.2 | IC50 (DPP-IV enzyme; [5]): 10.3 nM |
| generally weak | 62.3 | 62.3 | – | 56.23 | O=C(CNC12CC3CC(CC(O)(C3)C1)C2)Nc1cccc(F)c1 [Compound 31] | 0.37 | 0.85 | – |
| generally weak | – | – | 67.04* % | – | O=C(CNC12CC3CC(CC(O)(C3)C1)C2)Nc1ccccc1F [Compound 27] | – | – | – |
